Legend:
Type in all cases: cell-based
MCF7 cells = assay: crystal violet assay, cellular viability (cytostatic and cytotoxic effect), 48 hrs; conditions: Homo sapiens, MCF7, 48 h, MCF7 (parental/control), crystal violet, read-out: IC50
Procedure: (§1) Compound 1 and a comparative compound deferasirox (DFX) were tested in their efficacy to kill/suppress proliferation of malignant breast cancer MCF7 cells representing estrogen-dependent type of breast cancer. Briefly, 10.000 cells per well were seeded in a 96-well plate on one day and the next day the tested compounds were added and incubated with the cells for 48 hrs. The cells were then fixed with 4% paraformaldehyde, stained with 0.05% crystal violet, washed with PBS, and solubilized in 1% SDS. The absorbance of the plate at 595 nm was then measured, quantifying the number of viable cells.

MDA-MB-231 cells = assay: crystal violet assay, cellular viability, 48 hrs; conditions: Homo sapiens, MDA-MB-231, 48 h, MDA-MB-231, crystal violet, read-out: IC50
Procedure: as §1
Compound 1 and the comparative compound deferasirox were tested in their efficacy to kill/suppress proliferation of malignant MDA-MB-231 cancer cells representing hard to treat triple negative breast cancer. The procedure is identical to that in example 12.

cancer cell lines = assay: crystal violet assay, cancer cell lines overall; conditions: cancer cells, crystal violet
Procedure: as §1

MCF7 [1] = assay: annexin V/PI staining, cell death induction, 48 hrs
Procedure: (§2) This effect seems to be based mainly on the cytostatic effect of compound 1. To define the ability to kill cells, cell death-inducing potency (cytotoxic efficacy) of DFX and compound 1 have been tested via annexin V/PI staining commonly used as a measure of apoptotic/necrotic cell death. Briefly, cells were seeded in 12-well plate at 100,000 per well, incubated with the selected compounds for 48 hours, then floating cells were spun, adherent cells trypsinized and spun as well followed by the staining with AnnexinV-FITC and PI probes. Cells were then washed with PBS and measured via Fluorescence Activated Sorter.
(§3) Since compound 1 is an iron chelator, we have evaluated the effect of pre-loading compound 1 with iron at a 2:1 ratio and then applying it to the cells, followed by measurement of cell death using the Annexin V/PI staining as in example 4.

MDA-MB-231 [2] = assay: as above
Procedure: as §2, §3

[3] = test system: MCF7 mammospheres (cancer stem-like cells); assay: formation and growth of mammospheres, Cell Titer Glo 3D; conditions: 1 μM, 140 hrs
Procedure: To test the effect of compound 1 on the viability and proliferation of other resistant cancer cell types, we utilized a model of cancer stem-like cells that can be cultivated in vitro, so-called “mammospheres”. […] In this assay MCF7 spheres were dissociated to single cells/small spheres, seeded 10,000 cells per well on a special cell culture plastic that is non adherent in the Mammocult medium (Stem cell technologies) and compound 1 and compound 2 at 1 μM were added. This represents the non-cytotoxic concentration. Cells were left to grow and generate spheres for 140 hrs. The amount of cells was then measured by the Cell TiterGlo 3D reagent (Promega) that determines cell counts of 3D cultured cells as a function of their ATP content that is determined by a chemiluminescent assay.

MCF7 [4] = assay: cell cycle distribution, Vybrant DyeCycle Violet, flow cytometry; conditions: 1 μM
Procedure: (§4) In order to define the effect on cellular level, we investigated the effect of compound 1 and 2 at non-cytotoxic concentrations of the drugs (1 μM) on cell cycle. Cells were cultivated with the compounds for 24 and 48 hrs and then stained with Vybrant DyeCycle VioletReady Flow reagent (ThermoFisher Scientific) that binds to DNA and analyzed by Flow cytometry and Kaluza program to define the proportions of G1,S and G2/M phases of cell cycle. It is evident that both compounds lead to accumulation of cells in G1 phase if the cell cycle, which become more prominent at later time points (see Table 12, 13).

MDA-MB-231 [5] = assay: as above; conditions: 1 μM
Procedure: as §4

MCF7 [6] = assay: cellular ROS, DCF-DA probe, flow cytometry; conditions: 5 μM
Procedure: (§5) The effect of compound 1 on generation of cellular reactive oxygen species (ROS) was evaluated in MCF7 and MDA-MB-231 cells using a cell permeable ROS probe 2′,7′-dichlorodihydrofluorescein diacetate (DCF-DA; Sigma-Aldrich) that measures several reactive species and becomes fluorescent upon oxidation. Cells treated with compound 1 or compound 2 (5 μM) for the described time interval were stained with the probe and then analyzed via Flow cytometry.

MDA-MB-231 [7] = assay: cellular ROS, DCF-DA probe, flow cytometry; conditions: 5 μM
Procedure: as §5

Compound: Oc1ccccc1-c1nc(-c2ccccc2O)n(CCCCCCCCCC[P+](c2ccccc2)(c2ccccc2)c2ccccc2)n1 [Compound 2, (10-(3,5-bis(2-hydroxyphenyl)-1H-1,2,4-triazol-1-yl)decyl)triphenylphosphonium Bromide]
- IC50 (MCF7 cells): 175 nM
- IC50 (MDA-MB-231 cells): 464 nM
- IC50 (cancer cell lines): ~100 nM
- dead cells (AnnexinV/PI) (MCF7 [1]; 1 μM): 44.2 (0.3) %
- dead cells (AnnexinV/PI) (MCF7 [1]; 2 μM): 41.2 (0.4) %
- dead cells (AnnexinV/PI) (MCF7 [1]; 5 μM): 60.8 (18.6) %
- dead cells (AnnexinV/PI) (MDA-MB-231 [2]; 1 μM): 26.7 (5.8) %
- dead cells (AnnexinV/PI) (MDA-MB-231 [2]; 2 μM): 38.5 (7.3) %
- dead cells (AnnexinV/PI) (MDA-MB-231 [2]; 5 μM): 87.8 (4.2) %
- chemiluminescence ATP values normalized to control sample set as 100 [3]: 2.82 (0.28)
- proportion of cells in G1 (MCF7 [4]; 24 hrs): 74.0 (1.3)
- proportion of cells in G2 (MCF7 [4]; 24 hrs): 20.3
- proportion of cells in S (MCF7 [4]; 24 hrs): 5.7
- proportion of cells in G1 (MCF7 [4]; 48 hrs): 77.5 (2.2)
- proportion of cells in G2 (MCF7 [4]; 48 hrs): 11.7 (3.8)
- proportion of cells in S (MCF7 [4]; 48 hrs): 10.8 (4.8)
- proportion of cells in G1 (MDA-MB-231 [5]; 24 hrs): 64.0 (7.7)
- proportion of cells in G2 (MDA-MB-231 [5]; 24 hrs): 28.8 (8.0)
- proportion of cells in S (MDA-MB-231 [5]; 24 hrs): 7.3
- proportion of cells in G1 (MDA-MB-231 [5]; 48 hrs): 74.1 (3.7)
- proportion of cells in G2 (MDA-MB-231 [5]; 48 hrs): 18.5 (5.1)
- proportion of cells in S (MDA-MB-231 [5]; 48 hrs): 7.4
- DCF-DA mean fluorescence (MCF7 [6]; 5 min, MCF7 (0 min = 100)): 316.5 (96.0)
- DCF-DA mean fluorescence (MCF7 [6]; 10 min, MCF7): 558.3 (186.5)
- DCF-DA mean fluorescence (MCF7 [6]; 15 min, MCF7): 821.5 (73.8)
- DCF-DA mean fluorescence (MCF7 [6]; 30 min, MCF7): 1201.0 (444.0)
- DCF-DA mean fluorescence (MCF7 [6]; 60 min, MCF7): 1029.0 (407.7)
- DCF-DA mean fluorescence (MDA-MB-231 [7]; 5 min, MDA-MB-231 (0 min = 100)): 255.9 (66.3)
- DCF-DA mean fluorescence (MDA-MB-231 [7]; 10 min, MDA-MB-231): 343.5 (78.9)
- DCF-DA mean fluorescence (MDA-MB-231 [7]; 15 min, MDA-MB-231): 555.6 (122.4)
- DCF-DA mean fluorescence (MDA-MB-231 [7]; 30 min, MDA-MB-231): 473.4 (136.1)
- DCF-DA mean fluorescence (MDA-MB-231 [7]; 60 min, MDA-MB-231): 332.0 (158.7)
